The record followed here is article PMC9046089, “CCNE1 amplification is synthetic lethal with PKMYT1 kinase inhibition” (Nature, 2022).

Experiment [1] has as its system cyclin B, CDK1, CDK1-pT14. The experiment in a line: Immunoblot of cyclin B, CDK1 and CDK1-pT14 after HU or gemcitabine. The conditions noted are these: for Quantitation of CDK1 (immunoblot of whole cell lysates) / Quantitation of CDK1-pT14 relative to total CDK1 (immunoblot of whole cell lysates) / Quantitation of cyclin B (immunoblot of whole cell lysates): FT282-hTERT-p53-R175H, DMSO = 1; for levels of cyclin B or CDK1: immunoblot and QIBC; for CDK1 pT14 levels: immunoblot, controlling for total CDK1. In general terms: A western blot detects proteins with antibodies after separation by electrophoresis.

Experiment [2] has as its system cytoplasmic cyclin B. Nature of the experiment: QIBC of cytoplasmic cyclin B intensity in EdU+ cells after HU or gemcitabine. The experiment is classed as cell-based. The conditions noted are these: 48 h. As for the experimental part:
Before collection, cells were pulsed with 20 μM EdU (5-ethynyl-2-deoxyuridine, Life Technologies cat. no. A10044) for 30 min and then washed with PBS and fixed with 4% paraformaldehyde (PFA) in PBS for 15 min at room temperature. Cells were then rinsed with PBS and permeabilized using 0.3% Triton X-100/PBS for 30 min. For chromatin-bound MCM measurements, cells were pre-extracted for 15 min on ice with CSK buffer (300 mM sucrose, 100 mM NaCl, 3 mM MgCl2, 10 mM PIPES pH 7.0, 0.5% v/v Triton-X 100) before PFA fixation. […] Fresh blocking buffer containing primary antibodies was added for 2 h. Cells were rinsed three times with PBS and then blocking buffer, with secondary antibodies and 0.4 μg ml^−1 DAPI (4,6-diamidino-2-phenylindole, Sigma-Aldrich, cat. no. D9542) was added for 1 h. After rinsing with PBS, immunocomplexes were fixed again using 4% PFA/PBS for 5 min.
Cells were fixed, permeabilized and stained in the same manner as immunofluorescence described above. Wells were filled with 200 μl PBS and images were acquired at the Network Biology Collaborative Centre (LTRI) on an InCell Analyzer 6000 automated microscope (GE Life Sciences) with a 20× objective. Image analysis was performed using Cellprofiler 3.1.9 and RStudio v1.2.5019[57] (Supplementary Fig. 4).

Experiment [3] has as its system HCC1569 cells. The experiment in a line: Cell proliferation assay (Incucyte growth inhibition, synergy). The conditions noted are these: for % growth relative to untreated: RP-6306 0. The experiment is classed as cell-based. From the text:
(§1) Per cent confluence relative to a non-treated control was used to evaluate growth inhibition induced by test compounds. […] (https://synergyfinder.fimm.fi).

The subject of experiment [4] is SUM149PT cells. Nature of the experiment: Cell proliferation assay (Incucyte growth inhibition). The experiment is classed as cell-based. The conditions noted are these: three replicates.
From the text: as §1

Experiment [5] relates to TOV112D cells. The experiment is described as above. The class given is cell-based. The conditions noted are these: three replicates.
From the text: as §1

The subject of experiment [6] is NUGC3 cells. The description is as above. The class given is cell-based. The conditions noted are these: growth inhibition, three replicates.
From the text: as §1

In experiment [7] the test system is RPE1-hTERT TP53-/- Cas9 CCNE1-high cells. The description is as above. The class given is cell-based. The conditions noted are these: read-out: RP-6306 EC50 (mM) RPE1 CCNE1 (C2), growth inhibition, three replicates.
From the text: as §1

The test system of experiment [8] is DOTC24510 cells. The experiment is described as above. The experiment is classed as cell-based. The conditions noted are these: growth inhibition, three replicates.
From the text: as §1

For experiment [9], the system named is COV362 cells. The description is as above. The class given is cell-based. The conditions noted are these: growth inhibition, three replicates.
From the text: as §1

The test system of experiment [10] is OVCAR3 cells. The description is as above. The class given is cell-based. The conditions noted are these: growth inhibition, three replicates.
From the text: as §1

Experiment [11] relates to KYSE30 cells. The experiment is described as above. The class given is cell-based. The conditions noted are these: growth inhibition, three replicates.
From the text: as §1

The subject of experiment [12] is RPE1-hTERT TP53-/- Cas9 parental cells. The description is as above. The experiment is classed as cell-based. The conditions noted are these: read-out: RP-6306 EC50 (mM) RPE1 WT, growth inhibition, three replicates.
From the text: as §1

Experiment [13] deals with SNU8 cells. The experiment is described as above. The experiment is classed as cell-based. The conditions noted are these: three replicates.
From the text: as §1

Experiment [14] concerns the target T1, human recombinant PKMYT1 (Homo sapiens, UniProt Q99640).
T1 construct: full-length human GST–PKMYT1 recombinant protein; GST (N); purchased Thermo Fisher Scientific A33387
T1 sequence (Q99640 1-499): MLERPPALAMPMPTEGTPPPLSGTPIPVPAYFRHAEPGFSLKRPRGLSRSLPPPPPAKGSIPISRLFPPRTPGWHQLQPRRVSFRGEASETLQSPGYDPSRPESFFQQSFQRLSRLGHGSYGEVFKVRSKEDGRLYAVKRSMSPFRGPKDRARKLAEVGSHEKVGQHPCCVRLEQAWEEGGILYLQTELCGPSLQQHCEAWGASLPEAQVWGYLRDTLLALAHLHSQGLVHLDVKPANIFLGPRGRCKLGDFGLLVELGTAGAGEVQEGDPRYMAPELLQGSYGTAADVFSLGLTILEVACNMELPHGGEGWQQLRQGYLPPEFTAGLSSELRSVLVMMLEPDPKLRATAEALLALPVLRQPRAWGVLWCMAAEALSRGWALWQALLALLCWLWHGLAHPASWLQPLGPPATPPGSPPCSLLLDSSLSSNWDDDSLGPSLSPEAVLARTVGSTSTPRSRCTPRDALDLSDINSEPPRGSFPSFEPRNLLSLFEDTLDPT
Nature of the experiment: ADP-Glo kinase assay of PKMYT1 catalytic activity. The class given is biochemical. A general note: ADP-Glo first removes unused ATP, then detects ADP through luciferase.

Each structure is given as a SMILES string. Several values for one entry are separate records, joined by “and”; a condition that tells them apart may be missing. Equal values may be shown once.

`NC(=O)NO` [hydroxyurea]: the “Quantitation of CDK1 (immunoblot of whole cell lysates)” value in experiment [1] (400 µM HU, listed as HU) is 1.2117 and 1.452 and 2.133. Further, the “Quantitation of CDK1-pT14 relative to total CDK1 (immunoblot of whole cell lysates)” value in experiment [1] (400 µM HU, listed as HU) was 1.45 and 1.634 and 1.7444. Besides, the “Quantitation of cyclin B (immunoblot of whole cell lysates)” value in [1] (400 µM HU, listed as HU) was 1.625 and 1.428 and 1.053. The “levels of cyclin B or CDK1” value in [1] is reported as “did not detect increased levels”. For the same molecule, the “CDK1 pT14 levels” value in [1] is “increased”. Besides, the “fold-change of cytoplasmic cyclin B intensity in EdU+ cells” value (“fold-change” for short) is 0.9979 and 0.9823 and 1.013 in experiment [2] (FT282-hTERT-p53-R175H CCNE1 high (C3), HU 50 mM (so in the source), listed as HU); 1.038 and 1.0461 and 1.056 in experiment [2] (FT282-hTERT-p53-R175H CCNE1 high (C3), HU 100 mM (so in the source), listed as HU); 1.095 and 1.0628 and 1.094 in experiment [2] (FT282-hTERT-p53-R175H CCNE1 high (C3), HU 200 mM (so in the source), listed as HU); 1.408 and 1.403 and 1.354 in [2] (FT282-hTERT-p53-R175H CCNE1 high (C3), HU 400 mM (so in the source), listed as HU); 1.011 and 1.029 and 1.0186 in experiment [2] (FT282-hTERT-p53-R175H WT, HU 50 mM (so in the source), listed as HU); 1.025 and 1.031 and 1.053 in [2] (FT282-hTERT-p53-R175H WT, HU 100 mM (so in the source), listed as HU). For the same molecule, the “fold-change” value is 1.0835 and 1.059 and 1.12 in experiment [2] (FT282-hTERT-p53-R175H WT, HU 200 mM (so in the source), listed as HU); 1.261 and 1.177 and 1.385 in experiment [2] (FT282-hTERT-p53-R175H WT, HU 400 mM (so in the source), listed as HU).
A word on the EC50: it is the concentration that produces a half-maximal response. For `C[C@@]1(O)CCC[C@H]1n1c(=O)c(C(F)F)cc2cnc(NC3CCN(S(C)(=O)=O)CC3)nc21` [PF-06873600], the EC50 in [3] (growth inhibition, three replicates) is 37 nM and 41 nM and 40 nM; in experiment [4] it was 75 nM and 85 nM and 80 nM; in [5], 43 nM and 47 nM and 42 nM; in [6], 28 nM and 25 nM and 22 nM; in experiment [7], 0.000125 mM; in [8], 56 nM and 41 nM and 28 nM. The EC50 is 94 nM and 93 nM in experiment [9]; 46 nM and 37 nM and 35 nM in experiment [10]; 32 nM and 22 nM and 29 nM in experiment [11]; 98 nM and 79 nM and 106 nM in experiment [12]; 21 nM and 50 nM and 43 nM in experiment [13].
As for `Cc1cnc2c(c1)c(C(N)=O)c(N)n2-c1c(C)cccc1C` [RP-6421], the “effect on PKMYT1 catalytic activity” value in experiment [14] (ADP-Glo dose-response) is listed as “no effect”. The “PKMYT1 catalytic activity, ADP-Glo signal” value in experiment [14] (c0 (log10 concentration, head mM) 1) is recorded as 13700; in [14] (c0 (log10 concentration, head mM) -0.57777), 15400; in experiment [14] (c0 (log10 concentration, head mM) -2.18442) it was 16550; in experiment [14] (c0 (log10 concentration, head mM) -3.8365), 15000; in experiment [14] (c0 (log10 concentration, head mM) -5.64386) it was 14750; in [14] (c0 (log10 concentration, head mM) -6.93016) it was 14350. The “PKMYT1 catalytic activity, ADP-Glo signal” value was found to be 14150 in [14] (c0 (log10 concentration, head mM) -8.53282); 14900 in experiment [14] (c0 (log10 concentration, head mM) -10.0955); 15800 in experiment [14] (c0 (log10 concentration, head mM) -11.6789); 15500 in [14] (c0 (log10 concentration, head mM) -13.2591).
For the molecule `Nc1ccn([C@@H]2O[C@H](CO)[C@@H](O)C2(F)F)c(=O)n1` [gemcitabine], in [3] (0.556 nM gemcitabine, DMSO = 100), the “growth relative to DMSO control” value is 76.36 and 70.43. Also, the “% growth relative to untreated” value was determined as 96.4701% in experiment [3] (gemcitabine 0.0524288 nM); 85.3567% in experiment [3] (gemcitabine 0.131072 nM); 85.2938% in experiment [3] (gemcitabine 0.32768 nM); 45.6374% in experiment [3] (gemcitabine 0.8192 nM); 16.2355% in [3] (gemcitabine 2.048 nM); 11.6895% in experiment [3] (gemcitabine 5.12 nM). In addition, the “% growth relative to untreated” value came to 9.354% in experiment [3] (gemcitabine 12.8 nM), 7.468% in experiment [3] (gemcitabine 32 nM) and 5.95% in [3] (gemcitabine 80 nM). Also, the “Quantitation of CDK1 (immunoblot of whole cell lysates)” value in [1] (5 nM Gemcitabine) was 1.203 and 0.9791 and 1.593. Further, the “Quantitation of CDK1-pT14 relative to total CDK1 (immunoblot of whole cell lysates)” value in experiment [1] (5 nM Gemcitabine) is 1.528 and 2.085 and 1.888. The “Quantitation of cyclin B (immunoblot of whole cell lysates)” value in experiment [1] (5 nM Gemcitabine) was 1.877 and 1.201 and 1.262. In addition, in [1], the “levels of cyclin B or CDK1” value is “did not detect increased levels”. Moreover, in [1], the “CDK1 pT14 levels” value is recorded as “increased”. Moreover, the “fold-change” value is 1.161 and 1.404 and 1.38 in experiment [2] (FT282-hTERT-p53-R175H CCNE1 high (C3), gemcitabine 5 nM); 1.346 and 1.467 and 1.135 in [2] (FT282-hTERT-p53-R175H WT, gemcitabine 5 nM).
